The results in this text go back to ChEMBL document CHEMBL6092180 (Eur J Med Chem, 2024).

The MIC80 is the lowest concentration that inhibits either 80% of growth or 80% of the strains tested, depending on the study.

Each structure is given as a SMILES string. In brackets after ≈: the same amount, converted by molar mass.

Holding throughout (format): functional
One assay concerns Candida parapsilosis. In words: Antifungal activity against Candida parapsilosis GIM 2.190 assessed as inhibition of fungal growth by CLSI M27-A3 guidelines based method. To be noted: Lodderomyces parapsilosis.
The test system of another assay is Pichia kudriavzevii. As to the kind of experiment: Antifungal activity against Candida krusei GIM 2.1 assessed as inhibition of fungal growth by CLSI M27-A3 guidelines based method.
A further assay relates to Candida tropicalis. In words: Antifungal activity against Candida tropicalis GIM 2.183 assessed as inhibition of fungal growth by CLSI M27-A3 guidelines based method.
Another assay has as its system Nakaseomyces glabratus. As to the kind of experiment: Antifungal activity against Candida glabrata assessed as inhibition of fungal growth by CLSI M27-A3 guidelines based method.
Assay [1] has as its system Candida albicans. As to the kind of experiment: Antifungal activity against Candida albicans SC5314 assessed as inhibition of fungal growth by CLSI M27-A3 guidelines based method.
For assay [2], the system named is Candida albicans. In words: Antifungal activity against Candida albicans GIM 2.194 assessed as inhibition of fungal growth by CLSI M27-A3 guidelines based method.
A further assay relates to Cryptococcus neoformans. In words: Antifungal activity against Cryptococcus neoformans CGMCC 2.3161 assessed as inhibition of fungal growth by CLSI M27-A3 guidelines based method.

Regarding `CN(Cc1ccc(C#Cc2cccc(Br)c2)cc1)CC(O)(Cn1cncn1)c1ccc(F)cc1F` (stereo unspecified), the MIC80 with Candida parapsilosis was 0.006 µg/mL (≈ 0.0112 µM); in the assay on Pichia kudriavzevii it was 0.2 µg/mL (≈ 0.372 µM); in the assay with Candida tropicalis, 0.013 µg/mL (≈ 0.0242 µM); in the assay with Nakaseomyces glabratus it was 0.8 µg/mL (≈ 1.49 µM); in the assay with Candida albicans [1] it was 0.025 µg/mL (≈ 0.0465 µM); with Candida albicans [2] it was 0.006 µg/mL (≈ 0.0112 µM). Also, the MIC80 in the assay on Cryptococcus neoformans stood at 0.013 µg/mL (≈ 0.0242 µM).

For the molecule `CN(Cc1ccc(C#Cc2ccc(OC(F)(F)F)cc2)cc1)CC(O)(Cn1cncn1)c1ccc(F)cc1F` (stereo unspecified), the MIC80 with Candida parapsilosis worked out at 0.013 µg/mL (≈ 0.024 µM); with Pichia kudriavzevii, 0.2 µg/mL (≈ 0.369 µM); in the assay with Candida tropicalis, 0.013 µg/mL (≈ 0.024 µM); with Nakaseomyces glabratus it was 0.2 µg/mL (≈ 0.369 µM); in the assay with Candida albicans [1] it was 0.025 µg/mL (≈ 0.0461 µM); with Candida albicans [2] it was 0.013 µg/mL (≈ 0.024 µM). In addition, the MIC80 with Cryptococcus neoformans was found to be 0.05 µg/mL (≈ 0.0922 µM).

Turning to `CN(Cc1ccc(C#Cc2ccc(O)cc2)cc1)CC(O)(Cn1cncn1)c1ccc(F)cc1F` (stereo unspecified), the MIC80 in the assay on Candida parapsilosis turned out to be 0.025 µg/mL (≈ 0.0527 µM); with Pichia kudriavzevii, 3.2 µg/mL (≈ 6.74 µM); in the assay with Candida tropicalis, 0.025 µg/mL (≈ 0.0527 µM); in the assay on Nakaseomyces glabratus it was 3.2 µg/mL (≈ 6.74 µM); in the assay with Candida albicans [1] it was 0.013 µg/mL (≈ 0.0274 µM); in the assay on Candida albicans [2], 0.025 µg/mL (≈ 0.0527 µM). In the assay on Cryptococcus neoformans, the MIC80 was determined as 0.2 µg/mL (≈ 0.421 µM).

Turning to `CCc1ccc(C#Cc2ccc(CN(C)CC(O)(Cn3cncn3)c3ccc(F)cc3F)cc2)cc1` (stereo unspecified), the MIC80 was 0.013 µg/mL (≈ 0.0267 µM) in the assay on Candida parapsilosis; 0.05 µg/mL (≈ 0.103 µM) in the assay on Pichia kudriavzevii; 0.013 µg/mL (≈ 0.0267 µM) with Candida tropicalis; 0.1 µg/mL (≈ 0.206 µM) with Nakaseomyces glabratus; 0.013 µg/mL (≈ 0.0267 µM) with Candida albicans [1]; 0.013 µg/mL (≈ 0.0267 µM) in the assay with Candida albicans [2]. Also, in the assay with Cryptococcus neoformans, the MIC80 amounted to 0.025 µg/mL (≈ 0.0514 µM).

As to `CN(Cc1ccc(C#Cc2ccc(N)cc2)cc1)CC(O)(Cn1cncn1)c1ccc(F)cc1F` (stereo unspecified), the MIC80 in the assay with Candida parapsilosis was found to be 0.05 µg/mL (≈ 0.106 µM); with Pichia kudriavzevii, 0.8 µg/mL (≈ 1.69 µM); in the assay on Candida tropicalis it was 0.2 µg/mL (≈ 0.422 µM); in the assay on Nakaseomyces glabratus, 3.2 µg/mL (≈ 6.76 µM); with Candida albicans [1], 0.2 µg/mL (≈ 0.422 µM); with Candida albicans [2], 0.05 µg/mL (≈ 0.106 µM). The MIC80 in the assay with Cryptococcus neoformans came out at 0.4 µg/mL (≈ 0.845 µM).

For `CN(Cc1ccc(C#Cc2ccncc2)cc1)CC(O)(Cn1cncn1)c1ccc(F)cc1F` (stereo unspecified), the MIC80 with Candida parapsilosis was 0.013 µg/mL (≈ 0.0283 µM); in the assay on Pichia kudriavzevii it was 0.2 µg/mL (≈ 0.435 µM); with Candida tropicalis, 0.013 µg/mL (≈ 0.0283 µM); with Nakaseomyces glabratus, 0.4 µg/mL (≈ 0.871 µM); with Candida albicans [1] it was 0.013 µg/mL (≈ 0.0283 µM); in the assay with Candida albicans [2], 0.006 µg/mL (≈ 0.0131 µM). In the assay on Cryptococcus neoformans, the MIC80 is 0.2 µg/mL (≈ 0.435 µM).

Regarding `CN(Cc1ccc(C#Cc2cccc(I)c2)cc1)CC(O)(Cn1cncn1)c1ccc(F)cc1F` (stereo unspecified), the MIC80 with Candida parapsilosis is 0.025 µg/mL (≈ 0.0428 µM); in the assay on Pichia kudriavzevii it was 3.2 µg/mL (≈ 5.48 µM); with Candida tropicalis, 0.025 µg/mL (≈ 0.0428 µM); in the assay with Nakaseomyces glabratus, 3.2 µg/mL (≈ 5.48 µM); in the assay on Candida albicans [1], 0.05 µg/mL (≈ 0.0856 µM); in the assay with Candida albicans [2] it was 0.05 µg/mL (≈ 0.0856 µM). Moreover, the MIC80 in the assay with Cryptococcus neoformans was 0.025 µg/mL (≈ 0.0428 µM).

Take `CN(Cc1ccc(C#Cc2ccc(Br)cc2)cc1)CC(O)(Cn1cncn1)c1ccc(F)cc1F` (stereo unspecified): the MIC80 with Candida parapsilosis worked out at 0.006 µg/mL (≈ 0.0112 µM); in the assay on Pichia kudriavzevii, 0.01 µg/mL (≈ 0.0186 µM); in the assay with Candida tropicalis, 0.025 µg/mL (≈ 0.0465 µM); with Nakaseomyces glabratus, 0.03 µg/mL (≈ 0.0558 µM); in the assay with Candida albicans [1] it was 0.013 µg/mL (≈ 0.0242 µM); in the assay with Candida albicans [2], 0.013 µg/mL (≈ 0.0242 µM). In the assay on Cryptococcus neoformans, the MIC80 is 0.013 µg/mL (≈ 0.0242 µM).

`CN(Cc1ccc(C#Cc2ccc(I)cc2)cc1)CC(O)(Cn1cncn1)c1ccc(F)cc1F` (stereo unspecified): the MIC80 with Candida parapsilosis is 0.006 µg/mL (≈ 0.0103 µM); in the assay with Pichia kudriavzevii, 0.03 µg/mL (≈ 0.0513 µM); in the assay with Candida tropicalis it was 0.013 µg/mL (≈ 0.0222 µM); with Nakaseomyces glabratus it was 0.01 µg/mL (≈ 0.0171 µM); with Candida albicans [1], 0.006 µg/mL (≈ 0.0103 µM); with Candida albicans [2] it was 0.006 µg/mL (≈ 0.0103 µM). In the assay with Cryptococcus neoformans, the MIC80 turned out to be 0.013 µg/mL (≈ 0.0222 µM).

For `CN(Cc1ccc(C#Cc2ccccn2)cc1)CC(O)(Cn1cncn1)c1ccc(F)cc1F` (stereo unspecified), the MIC80 in the assay with Candida parapsilosis turned out to be 0.05 µg/mL (≈ 0.109 µM); in the assay with Pichia kudriavzevii, 0.4 µg/mL (≈ 0.871 µM); in the assay with Candida tropicalis, 0.013 µg/mL (≈ 0.0283 µM); with Nakaseomyces glabratus, 1.6 µg/mL (≈ 3.48 µM); in the assay on Candida albicans [1], 0.013 µg/mL (≈ 0.0283 µM); with Candida albicans [2], 0.25 µg/mL (≈ 0.544 µM). Also, in the assay on Cryptococcus neoformans, the MIC80 worked out at 0.2 µg/mL (≈ 0.435 µM).

Take `C[C@@H](N(C)Cc1ccc(C#Cc2ccc(C(F)(F)F)cc2)cc1)[C@](O)(Cn1cncn1)c1ccc(F)cc1F`: the MIC80 in the assay with Candida parapsilosis is 0.013 µg/mL (≈ 0.0241 µM); in the assay with Pichia kudriavzevii, 0.1 µg/mL (≈ 0.185 µM); in the assay on Candida tropicalis, 0.013 µg/mL (≈ 0.0241 µM); with Nakaseomyces glabratus, 0.05 µg/mL (≈ 0.0925 µM); in the assay on Candida albicans [1], 0.025 µg/mL (≈ 0.0463 µM); with Candida albicans [2], 0.05 µg/mL (≈ 0.0925 µM). In addition, in the assay on Cryptococcus neoformans, the MIC80 is 0.05 µg/mL (≈ 0.0925 µM).

With `CN(Cc1ccc(C#Cc2ccc(Cl)cc2)cc1)CC(O)(Cn1cncn1)c1ccc(F)cc1F` (stereo unspecified), the MIC80 was 0.006 µg/mL (≈ 0.0122 µM) with Candida parapsilosis; 0.03 µg/mL (≈ 0.0609 µM) in the assay with Pichia kudriavzevii; 0.013 µg/mL (≈ 0.0264 µM) with Candida tropicalis; 0.05 µg/mL (≈ 0.101 µM) in the assay with Nakaseomyces glabratus; 0.006 µg/mL (≈ 0.0122 µM) in the assay on Candida albicans [1]; 0.013 µg/mL (≈ 0.0264 µM) in the assay on Candida albicans [2]. Further, the MIC80 with Cryptococcus neoformans came to 0.013 µg/mL (≈ 0.0264 µM).

`CN(Cc1ccc(C#Cc2ccc([N+](=O)[O-])c(F)c2)cc1)CC(O)(Cn1cncn1)c1ccc(F)cc1F` (stereo unspecified): the MIC80 in the assay with Candida parapsilosis is 0.006 µg/mL (≈ 0.0115 µM); with Pichia kudriavzevii, 0.01 µg/mL (≈ 0.0192 µM); with Candida tropicalis, 0.006 µg/mL (≈ 0.0115 µM); in the assay with Nakaseomyces glabratus, 0.01 µg/mL (≈ 0.0192 µM); in the assay on Candida albicans [1], 0.006 µg/mL (≈ 0.0115 µM); with Candida albicans [2] it was 0.006 µg/mL (≈ 0.0115 µM). In the assay with Cryptococcus neoformans, the MIC80 worked out at 0.025 µg/mL (≈ 0.0479 µM).
